We go through one molecule from patent US7053194B2, “Compositions and methods for p53-mediated repression of gene expression” (Fox Chase Cancer Center, priority 1999, dated 2006).

In assay [1] the test system is human breast carcinoma cells (MCF7). The experiment in a line: Northern analysis of survivin mRNA after doxorubicin. It counts as cell-based. To be noted: MCF7, 0.5 ug/mL doxorubicin, as early as twelve hours. The method, then: (§1) MCF-7 cells were maintained in RPMI-1640 supplemented with 10% fetal bovine serum and 100 units/ml of penicillin and streptomycin. The human melanoma cell line CaCl, and the derivative clone expressing the HPV E6 gene, were cultured as described (Ahn et al., Oncogene). The human osteosarcoma cell lines Saos-2 and U2-OS (kindly provided by Peter Adams, Fox Chase Cancer Center), the murine p21 knock-out fibroblasts (kindly provided by James Sherley, MIT) and the human lung adenocarcinoma cell line H1299 were cultured in DMEM supplemented with 10% fetal bovine serum and 100 units/ml of penicillin and streptomycin. Murine Va15 cells, containing the temperature-sensitive Valine 135 allele of p53, were maintained as described (Wu, et al., Genes & Devel. 7:1126–1132, 1993). All cells were grown at 37° C. […] For treatment with ultra-violet light, cells were irradiated with 0–10 J/m2 (as noted) of UV-C with a Spectroline X series ultraviolet lamp, and output was monitored with a traceable UV light meter (Fisher Scientific). […]
(§2) The full-length coding region for survivin was generated by reverse transcription-polymerase chain reaction (RT-PCR) using 5 ug of total RNA from the H1299 human lung adenocarcinoma cell line, using the Access RT-PCR kit (Promega) and the following oligonucleotides: forward 5′ […] […] Autoradiographs were quantitated using NIH image software. […]

The next assay relates to MCF-7 cells. Put plainly: Immunoprecipitation-western analysis of p53 and p53-mSin3a complexes. It counts as cell-based, human. The method, then:
Sub-confluent cultures of MCF 7 and A2780 cells were treated with 100 nM trichostatin A (TSA, Sigma)for 2 hours, followed by incubation with 0.5 ug/ml adriamycin (doxorubicin, Sigma) for the indicated timepoints. Va15 cells grown at 39 degrees were treated with 100 nM TSA for two hours, followed by temperature shift to 32 degrees for 12 hours. p53 induction was monitored by western analysis of 100 ug protein as described (Murphy et al., Genes & Devel. 10:2971–2980, 1996), using 0.1ug/ml DO-1 (Ab-6, Calbiochem) or 421 (Ab-1, Calbiochem). MDM2 induction was monitored using the monoclonal antibody 2A10, kindly provided by Arnold Levine (Rockefeller University). For UV treatments, cells were irradiated with 4 J/m2 of UV-C with a Spectroline X series ultraviolet lamp, and output was monitored with a traceable UV light meter (Fisher Scientific). For ALLN treatment, MCF-7 cells were treated with 50 uM ALLN (calpain I inhibitor, Sigma) made in DMSO (dimethyl sulfoxide, Sigma) or with DMSO alone for 2 hours prior to harvesting.
Sub-confluent cultures of cells were harvested and lysed in NP-40 buffer supplemented with protease inhibitors (1 mM PMSF, 10 ug/ml pepstatin A, 10 ug/ml aprotinin, and 5ug/ml leupeptin). Protein concentrations were determined by the method of Bradford (BioRad). Equal ug amounts of protein (between 2.0 and 3.0 mg) were immunoprecipitated with 1 ug of each antibody, except for Va15 immunoprecipitations, which used 1000 ug protein, as described (Murphy et al., Genes & Devel. 10:2971–2980, 1996). For p300, antibody N15 (Santa Cruz Biotechnology) and AB-1 (Calbiochem) yielded similar results. Each IP was washed twice in NP-40 buffer (Wu, et al., Genes & Devel. 7:1126–1132, 1993), followed by 2 washes in RIPA buffer (50 mM Tris pH 7.4/150 mM NaCl/1% Triton X 100/0.1% SDSI 1% Na deoxycholate). Immunoprecipitations were run on 7.5–10% SDS-PAGE gels and transferred overnight onto Immuno-Blot PVDF membrane (BioRad). […]
These complexes persisted under stringent washing conditions (RIPA buffer washes, see Materials and Methods), and were not present using control antisera (rabbit IgG, lane 1). […] We next analyzed the p53-mSin3a interaction following post-translational stabilization of p53 mediated by DNA damaging agents. […]
We next analyzed the time-course of the p53-mSin3a interaction following exposure of cells to the DNA damaging agent adriamycin (doxorubicin). Both p53-mSin3a and p53 p300 complexes were monitored by IP-western analysis in a time course following adriamycin treatment of MCF-7 cells. As a control, p53 was immunoprecipitated using polyclonal antisera generated against full-length p53 (Santa Cruz Biotechnology). p53 levels were also assessed at each time point by western analyses (data not shown). […]

The next assay relates to melanoma cells (CaCl). The experiment in a line: Northern analysis of survivin mRNA after doxorubicin. To be noted: 0.5 ug/mL doxorubicin, as early as twelve hours. It counts as cell-based, human. The method, then: as §1, §2

The structures appear in SMILES notation.

`COc1cccc2c1C(=O)c1c(O)c3c(c(O)c1C2=O)C[C@@](O)(C(=O)CO)C[C@@H]3O[C@H]1C[C@H](N)[C@H](O)[C@H](C)O1` [adriamycin, doxorubicin]: the “mRNA levels for survivin” value (in assay [1]; in the assay on melanoma cells (CaCl)) was “marked decreases in mRNA levels for survivin” throughout. Moreover, the “total p53 protein” value in the assay with MCF-7 cells (MCF-7, adriamycin, four and eight hours of treatment) is recorded as “significant increase in total p53 protein”. In addition, the “amount of p53 in mSin3a complexes, increase” value in the assay on MCF-7 cells (MCF-7 treated with doxorubicin) was “approximately five-fold greater”.
